Experimental data taken from patent US10266806B2, “Stem cell-derived hepatocytes in co-culture and uses thereof” (Colorado State University Research Foundation, priority 2014, dated 2019).
“Also recorded” adds a separate entry of the source. Where two headings read alike, the source gives them in different places.

How the values were obtained:
[1] = cited from earlier work
[2] = tested on: iMPCCs; experiment: Drug toxicity studies: iMPCCs treated for 8 days with multiple doses; details: increasing doses
[3] = tested on: iHeps in iMPCCs
[4] = tested on: iHeps in iCCs
[5] = tested on: primary human hepatocytes in MPCCs; details: (ref 19); cited from earlier work
[6] = negative number: withdrawn from the market; higher positive numbers: greater DILI concern; cited from earlier work
[7] = tested on: iHeps in iMPCCs; experiment: Drug toxicity screening in iMPCCs (albumin, ATP, urea; binary decision and TC50)
[8] = tested on: CYP1A2; experiment: CYP1A2 induction in iMPCCs (7-ethoxyresorufin O-dealkylation); assay type: cell-based, human
[9] = tested on: CYP3A4; details: human
[10] = tested on: CYP2C9; details: rifampin 25 μM or phenobarbital 1 mM, 4 days
[11] = tested on: CYP2C9; details: rifampin 25 μM or phenobarbital 1 mM, 4 days; remark: listed apart in the source

Compound: COc1ccc2c(c1)[C@]13CCCC[C@@H]1[C@H](C2)N(C)CC3 [Dextromethorphan HBr]
- Cmax ([1]; human, in vivo): 0.028 µM
- albumin production in iMPCCs [2]: minimally affected
- urea production in iMPCCs [2]: minimally affected

Compound: NNC(=O)c1ccncc1 [Isoniazid]
- toxicity call in iMPCCs / iHeps [3]: toxic
- Model predictions iCC (binary decision) [4]: −
- toxicity call in iCCs [4]: non-toxic
- TC50 in MPCCs Urea [5]: 4.5796 mM
- DILI Sev (DILI severity scores from the LTKB of the FDA) [6]: 8
- Cmax ([1]; total human plasma concentration): 76.6 µM
- TC50 in MPCCs Albumin [7]: 6.6815 mM

Compound: COc1ccc2[nH]c([S+]([O-])Cc3ncc(C)c(OC)c3C)nc2c1 (centres unmarked) [omeprazole]
- induction of iMPCC CYP1A2 activity ([8]; 4 days): dose-dependent manner
- CYP1A2 fold induction in iMPCCs as % of values in PHH-MPCCs ([8]; same dose and duration): ~70%

Compound: CCC1(c2ccccc2)C(=O)NC(=O)NC1=O [phenobarbital]
- fold induction of CYP3A4 transcripts in iMPCCs relative to PHH-MPCCs [9]: 60-130%
- induction in CYP3A4 functions in iMPCCs relative to PHH-MPCCs [9]: 44-79%
- CYP2C9 functional activity induction in iMPCCs [10]: significant increases; also recorded: induced
- CYP2C9 gene expression induction in iMPCCs [10]: inducible; also recorded: induced
- CYP2C9 induction response in iCCs [11]: induced functional activity; also recorded: severely blunted
